Laboratory results published in patent EP0509470A2, “Therapeutical compositions having anti-HIV activity consisting of 2',3'-didesoxyadenosine and substances inhibiting adenosine deaminase” (REPLA CHEMICAL LTD., priority 1991, dated 1992).
Read-outs that look alike come from different tables or passages of the source.

Key:
HIV-1 [1] = experiment: Inhibition of infecting HIV production in MT4 cells (end point titration); format: cell-based; conditions: for EC90: read-out: ED90 (the source's name)
Procedure: (§1) The cellular lines utilized in this study were: H9, T lymphocytes, CD4+, permissive for the HIV replication but partially resistant to its cytopathic effect; • H9/IIIB, H9 lymphocytes chronically infected by HTLV/IIIB virus; • MT4 and C8166, T lymphocytes lines, CD4+ permissive for HIV replication. In C8166 the virus induces a cytopathic effect which results in the formation of syncytia easily visible at the optical microscope.
(§2) All the lymphoid lines were cultured in RPMI 1640 containing 10 % of non decomplemented fetal calf serum (FCS), penicillin 100U/mL and streptomycin 100 µg/mL and incubated at 37 °C in 5% CO₂.
(§3) HIV virus was obtained by H9/IIIB cells surnatant taken at the end of their exponential growth.
(§4) The titre of several stock preparations was comprised between 2 and 5 x 10⁵ Cell Culture Infection Dose 50 (CCID50)/mL.
(§5) For the evaluation of the anti-HIV activity the inhibition of infecting HIV production was determined as follows.
(§6) C8166 or MT4 cells sown at a density of 1 x 10⁶ cells/ml, were infected with a multiplicity of infection (m.o.i.) comprised between 0.05 and 0.02 CCID50/cell. After two hours of incubation at 37 °C and subsequent removal of the inoculum, the cells were washed three times and resuspended at a density of 1 x 10⁵ cells/ml. in the absence or in the presence of the compounds to be investigated.
(§7) After 4 days of incubation at 37 °C the presence of syncytia was evaluated at the optical microscope and the quantity of infecting HIV present in the surnatant of the cultures was determined by end point titration.
(§8) HIV titration was carried out in C8166 cells sown at a density of 1 x 10⁵ cells/mL/well, by the limit dilution method (dilution ratio 1:2, every dilution being sown in quadruplicate).
(§9) After four days of incubation, the syncytia presence was evaluated at the microscope and the viral titre was calculated by the Reed and Muench method.

HIV-1 [2] = experiment: Inhibition of infecting HIV production in C8166 cells (end point titration); format: cell-based; conditions: for EC90: read-out: ED90 (the source's name)
Procedure: as §1, §2, §3, §4, §5, §6, §7, §8, §9

[3] = Cytotoxicity evaluation (cell number in Coulter after 96 hours); format: cell-based; conditions: human
Procedure: as §1, §2
(§10) For the cytotoxicity evaluation, the cells were resuspended in a culture medium at a density of 1 x 10⁵/mL, were incubated in the absence or in the presence of various concentration of the compounds to be studied and their number was determined in Coulter after 96 hours of incubation at 37 °C.

MT4 cells = experiment: as above; format: cell-based
Procedure: as §1, §2, §10

C8166 cells = experiment: as above; format: cell-based; conditions: C8166 cells; concentrations up to 500 µM
Procedure: as §1, §2, §10

human T lymphocytes = conditions: G. Ahluwalia et al. 1987; cited from earlier work
[4] = MT4 cells, compound alone, Table 2
[5] = C8166 cells, compound alone, Table 2
[6] = MT4 cells, concentrations up to 500 µM
[7] = ddAdo alone (Coformycin absent), MT4, Table 4
[8] = ddAdo alone (desoxycoformycin absent), MT4, Table 5
[9] = ddAdo with Coformycin 0.02 (unit not given), MT4
[10] = ddAdo with Coformycin 0.06 (unit not given), MT4
[11] = ddAdo with Coformycin 0.2 (unit not given), MT4
[12] = ddAdo with Coformycin 0.5 (unit not given), MT4
[13] = ddAdo with Coformycin 1.6 (unit not given), MT4
[14] = ddAdo with Coformycin 5 (unit not given), MT4
[15] = ddAdo with Coformycin 15 (unit not given), MT4
[16] = ddAdo with Coformycin 45 (unit not given), MT4
[17] = ddAdo with desoxycoformycin 0.05 (unit not given), MT4
[18] = ddAdo with desoxycoformycin 0.5 (unit not given), MT4
[19] = ddAdo with desoxycoformycin 5 (unit not given), MT4
[20] = ddAdo with desoxycoformycin 50 (unit not given), MT4
[21] = ddAdo alone (EHNA absent), C8166, Table 3
[22] = c8166 cells, maxima non cytotoxic doses (MNTD)
[23] = mt4 cells, maxima non cytotoxic doses (MNTD)

CCCCCC[C@H]([C@H](C)O)n1cnc2c(N)ncnc21 (relative stereo) [EHNA, 9-(erythro-2-hydroxy-3-nonyl) adenine]
EC90 (HIV-1 [1]; [4]): > 10 µM | enhancement of the anti-HIV-1 activity of ddAdo (10 µM) (HIV-1 [1]; MT4 cells, compound used at its MNTD together with ddAdo 10 µM, Fig. 1): highest enhancing effect | EC90 (HIV-1 [2]; [5]): > 15 µM | lowest concentration enhancing ddAdo anti-HIV activity, relative to its MNTD (HIV-1 [2]; EHNA with ddAdo, C8166): 250 times lower | CC50 at 96 h ([3]; c8166 cells): 25 µM | MNTC at 96 h ([3]; c8166 cells, MNTD): 15 µM | CC50 at 96 h ([3]; mt4 cells): 35 µM | MNTC at 96 h ([3]; mt4 cells, MNTD): 10 µM

OC[C@H]1O[C@@H](n2cnc3c2N=CNC[C@H]3O)[C@H](O)[C@@H]1O [CF, coformycin]
lowest concentration enhancing ddAdo anti-HIV activity, relative to its MNTD (HIV-1 [1]; CF with ddAdo, MT4): more than 12500 times lower | EC90 (HIV-1 [1]; [4]): > 250 µM | EC90 (HIV-1 [2]; [5]): > 250 µM | CC50 at 96 h ([3]; c8166 cells): > 250 µM | MNTC at 96 h ([3]; c8166 cells, MNTD): > 250 µM | CC50 at 96 h ([3]; mt4 cells): > 250 µM | MNTC at 96 h ([3]; mt4 cells, MNTD): > 250 µM | MCC at 96 h ([3]; cell line not specified, read-out: cytotoxic concentration): 250 µM

OC[C@H]1O[C@@H](n2cnc3c2NC=NC[C@H]3O)C[C@@H]1O [dCF, desoxycoformycin]
anti-HIV-1 activity (HIV-1 [1]; [6]): without any anti-HIV-1 activity | lowest concentration enhancing ddAdo anti-HIV activity, relative to its MNTD (HIV-1 [1]; dCF with ddAdo, MT4): more than 10,000 times lower | anti-HIV-1 activity (HIV-1 [2]; C8166 cells, concentrations up to 500 µM): without any anti-HIV-1 activity | toxicity (MT4 cells; [6]): non toxic | toxicity (C8166 cells): non toxic

Nc1ncnc2c1ncn2[C@H]1CC[C@@H](CO)O1 [ddAdo, 2',3'-didesoxyadenosine]
EC90 (HIV-1 [1]; [4]): 10 µM | ED99 (HIV-1 [1]; [7]): 19.0 µM | ED99.9 (HIV-1 [1]; [7]): 32.0 µM | EC90 (HIV-1 [1]; [7]): 11 µM | ED99 (HIV-1 [1]; [8]): 14.3 µM | ED99.9 (HIV-1 [1]; [8]): 23.8 µM | EC90 (HIV-1 [1]; [8]): 4.8 µM | EC90 (HIV-1 [1]; ddAdo with Coformycin 0.02 (unit inferred), MT4): 4 µM | ED99 (HIV-1 [1]; [9]): 7.6 µM | ED99.9 (HIV-1 [1]; [9]): 13.7 µM | ED99 (HIV-1 [1]; [10]): 7.1 µM | ED99.9 (HIV-1 [1]; [10]): 12.5 µM | ED99 (HIV-1 [1]; [11]): 5.0 µM | ED99.9 (HIV-1 [1]; [11]): 8.0 µM | EC90 (HIV-1 [1]; ddAdo with Coformycin 0.5 (unit inferred), MT4): 3.6 µM | ED99 (HIV-1 [1]; [12]): 5.0 µM | ED99.9 (HIV-1 [1]; [12]): 8.0 µM | EC90 (HIV-1 [1]; ddAdo with Coformycin 1.6 (unit inferred), MT4): 2.5 µM | ED99 (HIV-1 [1]; [13]): 4.5 µM | ED99.9 (HIV-1 [1]; [13]): 7.5 µM | EC90 (HIV-1 [1]; ddAdo with Coformycin 5 (unit inferred), MT4): 2 µM | ED99 (HIV-1 [1]; [14]): 4.0 µM | ED99.9 (HIV-1 [1]; [14]): 7.5 µM | EC90 (HIV-1 [1]; ddAdo with Coformycin 15 (unit inferred), MT4): 1.5 µM | ED99 (HIV-1 [1]; [15]): 3.5 µM | ED99.9 (HIV-1 [1]; [15]): 7.5 µM | EC90 (HIV-1 [1]; ddAdo with Coformycin 45 (unit inferred), MT4): 1 µM | ED99 (HIV-1 [1]; [16]): 2.5 µM | ED99.9 (HIV-1 [1]; [16]): 7.0 µM | ED99 (HIV-1 [1]; [17]): 8.0 µM | ED99.9 (HIV-1 [1]; [17]): 14.4 µM | EC90 (HIV-1 [1]; ddAdo with desoxycoformycin 0.5 (unit inferred), MT4): 1.3 µM | ED99 (HIV-1 [1]; [18]): 7.8 µM | ED99.9 (HIV-1 [1]; [18]): 14.2 µM | EC90 (HIV-1 [1]; ddAdo with desoxycoformycin 5 (unit inferred), MT4): 1.1 µM | ED99 (HIV-1 [1]; [19]): 6.2 µM | ED99.9 (HIV-1 [1]; [19]): 11.2 µM | EC90 (HIV-1 [1]; ddAdo with desoxycoformycin 50 (unit inferred), MT4): 0.9 µM | ED99 (HIV-1 [1]; [20]): 3.8 µM | ED99.9 (HIV-1 [1]; [20]): 6.7 µM | EC90 (HIV-1 [2]; [5]): 25 µM | ED99 (HIV-1 [2]; [21]): 39.0 µM | ED99.9 (HIV-1 [2]; [21]): 61.0 µM | ED99 (HIV-1 [2]; ddAdo with EHNA 0.06 µM, C8166): 30.5 µM | ED99.9 (HIV-1 [2]; ddAdo with EHNA 0.06 µM, C8166): 52.0 µM | EC90 (HIV-1 [2]; ddAdo with EHNA 0.06 µM, C8166): 10.5 µM | ED99 (HIV-1 [2]; ddAdo with EHNA 0.2 µM, C8166): 18.0 µM | ED99.9 (HIV-1 [2]; ddAdo with EHNA 0.2 µM, C8166): 42.5 µM | EC90 (HIV-1 [2]; ddAdo with EHNA 0.2 µM, C8166): 7.5 µM | ED99 (HIV-1 [2]; ddAdo with EHNA 0.5 µM, C8166): 14.5 µM | ED99.9 (HIV-1 [2]; ddAdo with EHNA 0.5 µM, C8166): 34.5 µM | EC90 (HIV-1 [2]; ddAdo with EHNA 0.5 µM, C8166): 6.5 µM | ED99 (HIV-1 [2]; ddAdo with EHNA 1.6 µM, C8166): 11.5 µM | ED99.9 (HIV-1 [2]; ddAdo with EHNA 1.6 µM, C8166): 25.5 µM | EC90 (HIV-1 [2]; ddAdo with EHNA 1.6 µM, C8166): 5 µM | ED99 (HIV-1 [2]; ddAdo with EHNA 5 µM, C8166): 10.0 µM | ED99.9 (HIV-1 [2]; ddAdo with EHNA 5 µM, C8166): 23.5 µM | EC90 (HIV-1 [2]; ddAdo with EHNA 5 µM, C8166): 3.5 µM | ED99 (HIV-1 [2]; ddAdo with EHNA 15 µM, C8166): 7.5 µM | ED99.9 (HIV-1 [2]; ddAdo with EHNA 15 µM, C8166): 17.5 µM | EC90 (HIV-1 [2]; ddAdo with EHNA 15 µM, C8166): 3 µM | MNTC (MT4 cells; human, mt4 cells, 96 h): 1 mM | CC50 at 96 h ([3]; c8166 cells): > 1000 µM | MNTC at 96 h ([3]; c8166 cells, MNTD): > 1000 µM | MNTC at 96 h [3, 22]: ≥ 1000 µM | CC50 at 96 h ([3]; mt4 cells): > 1000 µM | MNTC at 96 h ([3]; mt4 cells, MNTD): > 1000 µM | MNTC at 96 h [3, 23]: ≥ 1000 µM | MNTC at 96 h ([3]; mt4 cells, in association with 15 µM of EHNA, Fig. 2, read-out: MNTD of ddAdo): 60 µM | MNTC at 96 h ([3]; mt4 cells, in association with 125 µM of CF, Fig. 3, read-out: MNTD of ddAdo): 60 µM

OC[C@@H]1CC[C@H](n2cnc3c(O)ncnc32)O1 [ddIno, 2',3'-didesoxy-inosine, reference compound]
EC90 (HIV-1 [1]; [4]): 11 µM | EC90 (HIV-1 [2]; [5]): 28 µM | CC50 at 96 h ([3]; c8166 cells): > 1000 µM | MNTC at 96 h ([3]; c8166 cells, MNTD): > 1000 µM | MNTC at 96 h [3, 22]: ≥ 1000 µM | CC50 at 96 h ([3]; mt4 cells): > 1000 µM | MNTC at 96 h ([3]; mt4 cells, MNTD): > 1000 µM | MNTC at 96 h [3, 23]: ≥ 1000 µM | entry into the cells, less efficient than that of ddAdo (human T lymphocytes): 4-6 time
